Results: PubChem BioAssay (NCI)
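Step 1: Grow cells in 96-well plates. Step 2: Expose to compound for 48 hours at 5 concentrations. Step 3: Interpolate endpoints linearly; if unreached, use highest concentration. GI50 is the concentration that inhibits growth by half. TGI marks complete inhibition of growth.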

Legend:
Assay in all cases: NCI tumour cell line growth inhibition, 48 h
SK-MEL-2 melanoma = test system: SK-MEL-2 melanoma
IGROV1 ovarian = test system: IGROV1 ovarian
CAKI-1 renal = test system: CAKI-1 renal
NCI-H522 lung = test system: NCI-H522 lung
TK-10 renal = test system: TK-10 renal
MCF7 breast = test system: MCF7 breast
BT-549 breast = test system: BT-549 breast
NCI/ADR-RES ovarian = test system: NCI/ADR-RES ovarian
SNB-75 CNS = test system: SNB-75 CNS
HOP-62 NSCLC = test system: HOP-62 NSCLC
CCRF-CEM leukemia = test system: CCRF-CEM leukemia
OVCAR-3 ovarian = test system: OVCAR-3 ovarian
SK-OV-3 ovarian = test system: SK-OV-3 ovarian
SF-268 CNS = test system: SF-268 CNS
SF-295 CNS = test system: SF-295 CNS
K-562 leukemia = test system: K-562 leukemia
HCT-15 colon = test system: HCT-15 colon
MDA-MB-231 breast = test system: MDA-MB-231 breast
KM12 colon = test system: KM12 colon
UO-31 renal = test system: UO-31 renal
ACHN renal = test system: ACHN renal
SR leukemia = test system: SR leukemia
HT29 colon = test system: HT29 colon
HCC-2998 colon = test system: HCC-2998 colon
MDA-MB-435 = test system: MDA-MB-435
PC-3 prostate = test system: PC-3 prostate
SF-539 CNS = test system: SF-539 CNS
RXF 393 renal = test system: RXF 393 renal
M14 melanoma = test system: M14 melanoma

## COc1cc(C#Cc2ccc(=O)oc2C#Cc2ccccc2)cc(OC)c1OC
SK-MEL-2 melanoma
  GI50: 5.69 µM
  TGI: 12.7 µM
IGROV1 ovarian
  GI50: 2.18 µM
  TGI: 5.7 µM
CAKI-1 renal
  GI50: 2.12 µM
  TGI: 4.26 µM
NCI-H522 lung
  GI50: 1.73 µM
  TGI: 3.57 µM
TK-10 renal
  GI50: 4.57 µM
  TGI: 13 µM
MCF7 breast
  GI50: 1.99 µM
  TGI: 4.86 µM
BT-549 breast
  GI50: 1.97 µM
  TGI: 4.21 µM
NCI/ADR-RES ovarian
  GI50: 6.39 µM
  TGI: 18.9 µM
SNB-75 CNS
  GI50: 2.7 µM
  TGI: 7.62 µM
HOP-62 NSCLC
  GI50: 12.2 µM
  TGI: 30.9 µM
CCRF-CEM leukemia
  GI50: 4.02 µM
  TGI: > 100 µM
OVCAR-3 ovarian
  GI50: 1.93 µM
  TGI: 3.58 µM
SK-OV-3 ovarian
  GI50: 15.2 µM
  TGI: > 74.5 µM
SF-268 CNS
  GI50: 2.38 µM
  TGI: 5.85 µM
SF-295 CNS
  GI50: 18.3 µM
  TGI: 38.9 µM
K-562 leukemia
  GI50: 3.67 µM
  TGI: > 40.4 µM
HCT-15 colon
  GI50: 2.31 µM
  TGI: 5.1 µM
MDA-MB-231 breast
  GI50: 2.84 µM
  TGI: 7.87 µM
KM12 colon
  GI50: 15.1 µM
  TGI: 44.8 µM
UO-31 renal
  GI50: 1.51 µM
  TGI: 3.04 µM
ACHN renal
  GI50: 2.13 µM
  TGI: 4.23 µM
SR leukemia
  GI50: 1.84 µM
  TGI: > 31.3 µM
HT29 colon
  GI50: 2.44 µM
  TGI: 6.6 µM
HCC-2998 colon
  GI50: 2.6 µM
  TGI: 9.87 µM
MDA-MB-435
  GI50: 3.4 µM
  TGI: 17.8 µM
PC-3 prostate
  GI50: 4.13 µM
  TGI: 16.3 µM
SF-539 CNS
  GI50: 3.58 µM
  TGI: 11.3 µM
RXF 393 renal
  GI50: 2.21 µM
  TGI: 4.34 µM
M14 melanoma
  GI50: 2.38 µM
